From patent US20080200531A1, “CDKI pathway inhibitors as inhibitors of tumor cell growth” (priority 2006, published 2008) come the findings set out here.

Series [1] is described as follows: Plasma level of SNX9 one hour after IV injection, HPLC analysis. As to conditions: NCr nude, mouse, one hour after IV injection of 70 mg/kg, two mice. It counts as in vivo. The protocol:
In order to determine the ability of SNX9 to remain in the blood of mice at detectable levels, we analyzed its plasma level one hour after IV injection. Two control mice were uninjected, and two mice were injected IV with 70 mg/kg SNX9 (dissolved in PBS). After one hour, the mice were euthanized and the blood collected by cardiac puncture. After plasma was prepared from the whole blood it was frozen and stored at −70° C. The frozen plasma was thawed and 100 μl was cleared of plasma protein by precipitation with 4 volumes of 100% ethanol at −20° C. for one hour. Under these conditions, SNX9 is recovered quantitatively in the ethanol soluble fraction with a minimum of plasma contamination.
The first assay was HPLC analysis. For this assay, the ethanol soluble fraction was dried under vacuum and re-dissolved in 100 μl 30% acetonitrile 0.1% trifluoroacetic acid (TFA). 4 μl of the ethanol extracted SNX9 was applied to a C18 HPLC column and eluted isocratically using a buffer of 30% acetonitrile 0.1% TFA at a flow rate of 0.3 ml/min. The elution of SNX9 was monitored at its absorption maximum wavelength of 280 nm. […]
The second assay was a biological test for cytotoxicity. […] After 72 hours the growth inhibition was measured by Hoechst staining of the cell lysate in each well of the 96 well tissue culture plate, prepared as previously described.

Series [2] concerns CDKI-responsive endogenous genes induced by p16. Description: Q-PCR of CDKI-responsive endogenous genes, HT1080 cells with IPTG-inducible p16. It counts as cell-based, human. As to conditions: 10 μM SNX9; normalized to β-actin. As for the experimental part:
For this purpose, we developed real-time RT-PCR (Q-PCR) assays for measuring RNA levels of eleven CDKI-responsive genes. This assay uses a 96-well TurboCapture RNA extraction kit (Qiagen), in which oligo(dT) is covalently bound to the surface of the wells to allow mRNA isolation from cell lysate and cDNA synthesis in the same wells. 5 units/μl of SuperScript III reverse transcriptase (Invitrogen) was added to the wells for 1 hr for cDNA synthesis at 50° C., and 2 μl of the resulting cDNA was then used for Q-PCR analysis using SYBR Green PCR Master Mix (ABI) with ABI 7900HT Q-PCR machine.
This effect argues that the molecular target of these compounds is not a specific CDKI but rather a common downstream mediator of the transcription-inducing effects of different CDKI.

In series [3] the test system is p21-induced transcription from the NK4 promoter. Nature of the series: NK4 promoter-firefly luciferase reporter in HT1080 p21-9 cells. The note with it: 20 μM SNX-9. It is filed as cell-based, human. As for the experimental part: In this experiment, HT1080 p21-9 cells that express firefly luciferase from a CDKI-responsive promoter of cellular NK4 gene were cultured with IPTG for two days, which is sufficient for near-maximal induction of NK4 (Poole et al., supra).

The subject of series [4] is normal fibroblasts (WI-38, BJ-EN). Description: 3-day growth inhibition assay (Hoechst 33342), normal cells. It is filed as cell-based, human. As to conditions: 5 μM; 3 days.
Procedure: The assays were carried out in 96-well plates, in triplicates; the plated cell numbers for each cell line were determined in preliminary experiments to assure exponential growth over the 3-day period of the assay. The cell numbers were measured by staining DNA of attached cells with Hoechst 33342, and the results for each dose were expressed as the decrease in cell number relative to untreated cells. For some of the tumor/normal cell line combinations, the assays were repeated using CellTiter-Glo viability assay (Promega), with the same results.
For series [5], the system named is p21-responsive genes (IPTG-induced p21). Nature of the series: Affymetrix U133 2.0 Plus microarray analysis of p21-responsive genes in HT1080 p21-9. It is filed as cell-based, human. The note with it: for fold induction at 20 µM: Homo sapiens, HT-1080, 72 h. As for the experimental part: HT1080 p21-9 cell line, which carries IPTG-inducible CDKI p21, was either untreated, or treated for 72 hrs with 100 μM IPTG (which induces p21), or with CDKI pathway inhibitors SNX9-1 (20 μM, SNX9 family) or SNX14 (80 μM, unrelated to SNX9) alone or in combination with IPTG. RNA was extracted after each treatment and used for hybridization with Affymetrix U133 2.0 Plus microarrays, containing 56,000 probe sets corresponding to essentially all the human genes. The microarray data were analyzed using Gene Spring software (Agilent). […] The first group (p21-induced genes, top panels) represents 1124 probe sets corresponding to genes that were induced at least 2-fold upon treatment with p21-inducing IPTG. The second group (p21-inhibited genes, bottom panels) represents 435 probe sets corresponding to genes that were inhibited at least 4-fold upon IPTG treatment. […] The left panels show the response of the two groups of genes to IPTG (p21 induction) in the absence of SNX9-class compounds, with the first group induced and the second group inhibited by IPTG. The middle panels show the response of the same genes to IPTG in the presence of SNX9-1 or SNX14 (added with or without IPTG). Both the induction and the inhibition of gene expression by IPTG appear much reduced in the presence of SNX9-1 or SNX14, as expected from their activity as CDKI pathway inhibitors.

The mark [6] stands for this setting: SNX9-1 20 μM, SNX14 80 μM, 72 hrs.

Like-named read-outs stand apart in the source and are kept apart here.

Take `Cc1[nH]c2c(Cl)cccc2c1CCN` [SNX9]: the concentration at 1 h in series [1] was around 250 µM. Also, the “induction of CDKI-responsive endogenous genes by p16 (ratio of RNA levels with and without IPTG)” value in series [2] is listed as “partially inhibit the induction of all the tested genes”. In addition, in series [3], the “induction of NK4-luciferase by p21, compound added after two days of IPTG treatment (reversal)” value was “reverses CDKI-induced transcription” and the “induction of NK4-luciferase by p21, compound added simultaneously with IPTG” value is recorded as “decreased the induction of NK4-luciferase by p21”. Further, the “growth inhibition of normal cells” value in series [4] is listed as “no effect on normal cells”.
As to `NCCc1c[nH]c2c(Cl)cc(Cl)cc12` [SNX9-1], the fold induction at 20 µM in series [5] (read-out: Fold induction by IPTG, CD44, probe 212063_at, SNX14 80 μM, SNX9-1 20 μM, control 1.21) was determined as 1.03; in series [5] (read-out: Fold induction by IPTG, CLTB, probe 211043_s_at, SNX14 80 μM, SNX9-1 20 μM, control 1.32), 0.95; in series [5] (read-out: Fold induction by IPTG, FLJ13111, probe 218148_at, SNX14 80 μM, SNX9-1 20 μM, control 1.27), 0.98; in series [5] (read-out: Fold induction by IPTG, KRT8, probe 209008_x_at, SNX14 80 μM, SNX9-1 20 μM, control 1.97), 0.81; in series [5] (read-out: Fold induction by IPTG, LGALS3, probe 208949_s_at, SNX14 80 μM, SNX9-1 20 μM, control 3.74), 1.33; in series [5] (read-out: Fold induction by IPTG, NK4, probe 203828_s_at, SNX14 80 μM, SNX9-1 20 μM, control 7.22), 1.6. In addition, the fold induction at 20 µM in series [5] (read-out: Fold induction by IPTG, SLC22A18, probe 204981_at, SNX14 80 μM, SNX9-1 20 μM, control 2.46) was determined as 1.34; in series [5] (read-out: Fold induction by IPTG, SPTBN1, probe 212071_s_at, SNX14 80 μM, SNX9-1 20 μM, control 1.24), 1.24; in series [5] (read-out: Fold induction by IPTG, SPTBN1, probe 226765_at, SNX14 80 μM, SNX9-1 20 μM, control 1.21), 1.09. Besides, the “induction and inhibition of gene expression by IPTG in the presence of compound (1124 p21-induced, 435 p21-inhibited probe sets)” value in series [5] (setting [6]) was “much reduced”. In addition, the “induction by p21 of genes that are markers of cancer intractability” value in series [5] (setting [6]) is reported as “inhibited their induction”. In series [5] (SNX9-1 20 μM, SNX14 80 μM, 72 hrs, weaker than IPTG), the “response of p21-induced and p21-inhibited genes to compound in the absence of IPTG” value was “most of p21-induced genes are induced by SNX9-1 and SNX14 and most of p21-inhibited genes are inhibited”.
